Results as given in the supplement of paper PMC10307832.

What was measured:
Assay in all cases: relative viability (nuclei count vs DMSO), 5 days (fraction); higher = more cells survive
Doramapimod + OSI-027 = compound: Cc1ccc(-n2nc(C(C)(C)C)cc2NC(=O)Nc2ccc(OCCN3CCOCC3)c3ccccc23)cc1 [Doramapimod] + COc1cccc2cc(-c3nc([C@H]4CC[C@H](C(=O)O)CC4)n4ncnc(N)c34)[nH]c12 [OSI-027] (partner 0.5 µM)
Summary of the method: (§1)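 Lung cancer cell lines, seeded in 1536-well plates, were treated the following day by pin tool with a single drug or with five library-drug doses (not always all listed) in √10 steps on top of a fixed anchor-drug dose. Cells were fixed and nuclei stained in one step after 5 days, and nuclei were counted. Relative viability is the nuclei count for treated wells divided by that for vehicle wells, reported as medians of duplicate plates.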

RAF265 + Palbociclib = compound: Cn1c(Nc2ccc(C(F)(F)F)cc2)nc2cc(Oc3ccnc(-c4ncc(C(F)(F)F)[nH]4)c3)ccc21 [RAF265] + CC(=O)c1c(C)c2cnc(Nc3ccc(N4CCNCC4)cn3)nc2n(C2CCCC2)c1=O [Palbociclib] (partner 0.5 µM)
Summary of the method: as §1

RAF265 + Foretinib = compound: Cn1c(Nc2ccc(C(F)(F)F)cc2)nc2cc(Oc3ccnc(-c4ncc(C(F)(F)F)[nH]4)c3)ccc21 [RAF265] + COc1cc2c(Oc3ccc(NC(=O)C4(C(=O)Nc5ccc(F)cc5)CC4)cc3F)ccnc2cc1OCCCN1CCOCC1 [Foretinib] (partner 0.25 µM)
Summary of the method: as §1

RAF265 + Pictilisib = compound: Cn1c(Nc2ccc(C(F)(F)F)cc2)nc2cc(Oc3ccnc(-c4ncc(C(F)(F)F)[nH]4)c3)ccc21 [RAF265] + CS(=O)(=O)N1CCN(Cc2cc3nc(-c4cccc5[nH]ncc45)nc(N4CCOCC4)c3s2)CC1 [Pictilisib] (partner 1 µM)
Summary of the method: as §1

Cell Line | relative viability (Doramapimod + OSI-027; first compound 0.02 µM) | relative viability (Doramapimod + OSI-027; first compound 0.06325 µM) | relative viability (Doramapimod + OSI-027; first compound 0.2 µM) | relative viability (Doramapimod + OSI-027; first compound 0.6325 µM) | relative viability (Doramapimod + OSI-027; first compound 2 µM) | relative viability (RAF265 + Palbociclib; first compound 0.01 µM) | relative viability (RAF265 + Palbociclib; first compound 0.03162 µM) | relative viability (RAF265 + Palbociclib; first compound 0.1 µM) | relative viability (RAF265 + Palbociclib; first compound 0.3162 µM) | relative viability (RAF265 + Palbociclib; first compound 1 µM) | relative viability (RAF265 + Foretinib; first compound 0.01 µM) | relative viability (RAF265 + Foretinib; first compound 0.03162 µM) | relative viability (RAF265 + Foretinib; first compound 0.1 µM) | relative viability (RAF265 + Foretinib; first compound 0.3162 µM) | relative viability (RAF265 + Foretinib; first compound 1 µM) | relative viability (RAF265 + Pictilisib; first compound 0.01 µM) | relative viability (RAF265 + Pictilisib; first compound 0.03162 µM) | relative viability (RAF265 + Pictilisib; first compound 0.1 µM) | relative viability (RAF265 + Pictilisib; first compound 0.3162 µM) | relative viability (RAF265 + Pictilisib; first compound 1 µM)
LC-2-ad | 0.897 | 0.811 | 0.891 | 0.827 | 0.671 | 0.488 | 0.499 | 0.55 | 0.58 | 0.29 | 1.22 | 0.921 | 0.94 | 0.863 | 0.645 | 0.441 | 0.361 | 0.223 | 0.171 | 0.0927
LCLC-97TM1 | 0.533 | 0.412 | 0.517 | 0.437 | 0.432 | 0.233 | 0.245 | 0.158 | 0.208 | 0.0796 | 0.993 | 0.811 | 0.967 | 0.811 | 0.448 | 0.177 | 0.172 | 0.112 | 0.145 | 0.107
LCLC-103H | 0.444 | 0.424 | 0.386 | 0.422 | 0.396 | 0.463 | 0.47 | 0.496 | 0.404 | 0.322 | 0.802 | 0.587 | 0.645 | 0.504 | 0.39 | 0.616 | 0.615 | 0.638 | 0.431 | 0.422
LK-2 | 0.204 | 0.152 | 0.18 | 0.158 | 0.186 | 0.558 | 0.679 | 0.722 | 0.804 | 0.364 | 1.07 | 1.13 | 0.952 | 1.05 | 0.862 | 0.528 | 0.669 | 0.604 | 0.531 | 0.403
LOU-NH91 | 0.776 | 0.752 | 0.738 | 0.769 | 0.559 | 0.565 | 0.524 | 0.55 | 0.537 | 0.436 | 1.04 | 0.845 | 0.954 | 0.582 | 0.71 | 0.529 | 0.487 | 0.495 | 0.481 | 0.474
LU99A | 0.299 | 0.341 | 0.261 | 0.344 | 0.272 | 0.366 | 0.35 | 0.325 | 0.217 | 0.144 | 0.837 | 0.745 | 0.624 | 0.522 | 0.332 | 0.324 | 0.269 | 0.233 | 0.21 | 0.187
LXF-289 | 0.765 | 0.762 | 0.72 | 0.686 | 0.605 | 0.622 | 0.615 | 0.625 | 0.498 | 0.313 | 0.999 | 0.986 | 0.938 | 0.875 | 0.709 | 0.857 | 0.655 | 0.577 | 0.361 | 0.374
NCI-H23 | 0.646 | 0.601 | 0.663 | 0.491 | 0.628 | 0.499 | 0.342 | 0.304 | 0.262 | 0.206 | 0.741 | 0.847 | 0.739 | 0.724 | 0.442 | 0.545 | 0.429 | 0.393 | 0.245 | 0.206
NCI-H322M | 0.577 | 0.579 | 0.562 | 0.522 | 0.527 | 0.474 | 0.498 | 0.425 | 0.381 | 0.326 | 1.09 | 1.03 | 0.781 | 0.402 | 0.275 | 0.48 | 0.487 | 0.406 | 0.308 | 0.252
NCI-H358 | 0.746 | 0.699 | 0.634 | 0.858 | 0.681 | 0.129 | 0.117 | 0.116 | 0.129 | 0.124 | 0.623 | 0.641 | 0.448 | 0.239 | 0.215 | 0.398 | 0.298 | 0.28 | 0.261 | 0.249
NCI-H441 | 0.709 | 0.512 | 0.591 |  | 0.475 | 0.212 | 0.237 | 0.233 | 0.171 | 0.183 | 1.28 | 1.04 | 0.966 | 0.884 | 0.623 | 0.572 | 0.466 | 0.304 | 0.261 | 0.206
NCI-H460 | 0.612 | 0.721 | 0.658 | 0.753 | 0.585 | 0.203 | 0.203 | 0.171 | 0.2 | 0.0711 | 1.06 | 0.982 | 1.06 | 1.04 | 1.1 | 0.5 | 0.455 | 0.403 | 0.201 | 0.179
NCI-H520 | 0.229 | 0.276 | 0.223 | 0.245 | 0.232 | 0.264 | 0.218 | 0.239 | 0.191 | 0.155 | 0.763 | 0.585 | 0.749 | 0.819 | 0.474 | 0.273 | 0.246 | 0.234 | 0.228 | 0.15
NCI-H647 | 0.702 | 0.546 | 0.706 | 0.711 | 0.639 | 0.335 | 0.401 | 0.196 | 0.228 | 0.218 | 1.14 | 0.867 | 0.957 | 0.979 | 0.659 | 0.38 | 0.342 | 0.383 | 0.259 | 0.208
NCI-H650 | 0.544 | 0.626 | 0.61 | 0.608 | 0.52 | 0.306 | 0.345 | 0.303 | 0.232 | 0.206 | 1.1 | 0.965 | 0.974 | 0.814 | 0.484 | 0.805 | 0.94 | 0.766 | 0.698 | 0.466
